Test results as given in US20060134056A1, “Use of alkylguanidines as cationic emulsifiers” (G[…], priority 2004, published 2006).

Test: storage stability of O/W emulsions
Type: physicochemical
Conditions: O/W emulsion with 0.5% emulsifier; room temperature, 45° C. and freeze-thaw cycles (3×−15° C.)
Method: Here, it was paaticulaily surprising that stable emulsions were obtainale even at emulsifier concentrations of 0.5% stearylguanidinium acetate (6 months stability at room temperature, 45° C. and freeze-thaw cycles (3×−15° C.)).
In addition, emulsions 7 to 8 also illustrate the excellent emulsifying properties of other alkylguanidinium salts.

CC(=O)O.CCCCCCCCCCCCCCCCCCNC(=N)N [stearylguanidinium acetate]
stability of emulsion: 6 months
